ChEMBL document CHEMBL3875142, “Quinolino[3,4-b]quinoxalines and pyridazino[4,3-c]quinoline derivatives: Synthesis, inhibition of topoisomerase IIα, G-quadruplex binding and cytotoxic properties” (Eur J Med Chem, 2016)
Calls of active or inactive are those of the source. No cut-off for these calls is given here.

What was measured:
[1] = Binding affinity to 5'-dabcyl/3'-fluorescein labeled pu27 G-quadruplex DNA (unknown origin) assessed as change in melting temperature at 10 uM by fluorescence assay
[2] = biological target: DNA topoisomerase 2-alpha (Homo sapiens, UniProt P11388); experiment: Inhibition of human DNA topoisomerase 2alpha-mediated decatenation of kinetoplast DNA after 60 mins by agarose gel electrophoresis
[3] = Cytotoxicity against human HeLa cells after 72 hrs by MTT assay; format: functional, cell-based
[4] = Binding affinity to 5'-dabcyl/3'-fluorescein labeled duplex DNA (unknown origin) assessed as change in melting temperature at 10 uM by fluorescence assay
[5] = Binding affinity to 5'-dabcyl/3'-fluorescein labeled cKit G-quadruplex DNA (unknown origin) assessed as change in melting temperature at 10 uM by fluorescence assay
Homo sapiens = organism: Homo sapiens; experiment: Binding affinity to 5'-dabcyl/3'-fluorescein labeled human telomeric sequence G-quadruplex DNA assessed as change in melting temperature at 10 uM by fluorescence assay
[6] = Inhibition of thiazole orange binding to cKit G-quadruplex DNA (unknown origin) by fluorescence assay
[7] = Cytotoxicity against human MCF7 cells after 72 hrs by MTT assay; format: functional, cell-based; details: MCF7, 72 h
[8] = Inhibition of thiazole orange binding to pu27 G-quadruplex DNA (unknown origin) by fluorescence assay
[9] = Inhibition of thiazole orange binding to human telomeric sequence G-quadruplex DNA by fluorescence assay
[10] = Inhibition of Escherichia coli DNA topoisomerase 4 decatenation activity using kinetoplast DNA as substrate after 60 mins by agarose gel electrophoresis
[11] = Inhibition of thiazole orange binding to duplex DNA (unknown origin) by fluorescence assay
Escherichia coli = experiment: Induction of Escherichia coli pBR322 DNA unwinding at 0.1 to 10 uM after 1 hr by agarose gel electrophoresis

DNA topoisomerase 2-alpha, sequence (P11388 whole entry): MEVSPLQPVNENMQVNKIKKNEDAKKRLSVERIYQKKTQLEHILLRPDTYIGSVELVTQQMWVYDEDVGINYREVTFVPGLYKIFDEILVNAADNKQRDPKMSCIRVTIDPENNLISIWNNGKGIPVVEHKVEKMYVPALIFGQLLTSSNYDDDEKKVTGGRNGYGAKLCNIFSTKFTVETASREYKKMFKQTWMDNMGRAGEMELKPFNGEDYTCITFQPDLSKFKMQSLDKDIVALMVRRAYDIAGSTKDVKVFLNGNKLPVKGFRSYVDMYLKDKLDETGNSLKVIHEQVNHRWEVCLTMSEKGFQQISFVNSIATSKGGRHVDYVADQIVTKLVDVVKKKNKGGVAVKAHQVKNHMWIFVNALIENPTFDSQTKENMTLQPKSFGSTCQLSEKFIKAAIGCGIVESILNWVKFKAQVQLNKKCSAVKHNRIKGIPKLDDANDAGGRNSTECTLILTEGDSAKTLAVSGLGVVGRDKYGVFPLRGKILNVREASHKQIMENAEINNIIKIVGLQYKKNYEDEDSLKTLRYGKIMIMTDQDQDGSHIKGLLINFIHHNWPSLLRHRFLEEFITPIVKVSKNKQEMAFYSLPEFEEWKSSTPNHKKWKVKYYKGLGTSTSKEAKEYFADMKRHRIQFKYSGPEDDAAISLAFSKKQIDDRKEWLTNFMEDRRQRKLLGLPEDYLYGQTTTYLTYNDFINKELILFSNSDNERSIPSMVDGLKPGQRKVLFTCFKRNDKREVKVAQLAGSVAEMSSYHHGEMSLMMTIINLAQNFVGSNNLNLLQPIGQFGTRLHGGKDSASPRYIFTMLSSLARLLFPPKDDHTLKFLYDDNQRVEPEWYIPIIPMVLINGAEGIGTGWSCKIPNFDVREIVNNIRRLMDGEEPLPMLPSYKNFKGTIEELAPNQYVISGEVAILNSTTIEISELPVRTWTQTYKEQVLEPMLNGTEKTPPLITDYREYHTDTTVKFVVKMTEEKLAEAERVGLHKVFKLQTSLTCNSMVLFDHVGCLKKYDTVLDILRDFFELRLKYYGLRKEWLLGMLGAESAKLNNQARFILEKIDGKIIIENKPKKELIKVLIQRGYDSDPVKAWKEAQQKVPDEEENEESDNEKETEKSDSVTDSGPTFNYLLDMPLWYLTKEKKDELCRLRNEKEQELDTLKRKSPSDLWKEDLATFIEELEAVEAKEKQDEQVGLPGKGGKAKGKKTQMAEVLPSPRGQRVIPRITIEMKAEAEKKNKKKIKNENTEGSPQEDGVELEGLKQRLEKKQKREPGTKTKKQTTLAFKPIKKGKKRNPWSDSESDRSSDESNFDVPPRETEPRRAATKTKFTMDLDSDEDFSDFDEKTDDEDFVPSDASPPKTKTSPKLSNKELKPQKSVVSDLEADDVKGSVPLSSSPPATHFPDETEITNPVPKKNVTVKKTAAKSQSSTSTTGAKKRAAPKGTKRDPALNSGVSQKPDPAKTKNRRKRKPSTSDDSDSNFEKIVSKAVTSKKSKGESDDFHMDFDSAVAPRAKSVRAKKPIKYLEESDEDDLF

Compound | ΔTm [1] [°C] | IC50 [2] [µM] | ΔTm [4] [°C] | ΔTm [5] [°C] | ΔTm (Homo sapiens) [°C] | EC50 [6] [µM] | EC50 [8] [µM] | EC50 [9] [µM] | IC50 [10] [µM] | EC50 [11] [µM] | Activity (Escherichia coli) | IC50 [3] [µM] | IC50 [7] [µM]
O=C1c2ccccc2C(=O)c2c(NCCNCCO)ccc(NCCNCCO)c21 [AMETANTRONE] |  |  |  |  |  |  |  |  |  |  |  | 0.9 | 0.51
CCN(CC)CCn1c(=O)c2nc3ccccc3nc2c2ccccc21 | 3.5 | 87.6 | 0.4 | 4.5 | 2.3 |  |  |  |  |  |  | 8.52 | 
O=c1[nH]c2ccccc2c2nc3ccccc3nc12 | 0 | > 100 | 0 | 0 | 0 |  |  |  | > 100 |  |  | 19.8 | 32.7
c1ccc2nc3c(nc2c1)c(NCCN1CCOCC1)nc1ccccc13 | 0 | 100 | 0 | 0 | 0 |  |  |  | > 100 |  |  | > 100 | > 100
CCN(CC)CCNc1nc2ccccc2c2nc3ccccc3nc12 | 3.8 | > 100 | 1.1 | 5.8 | 1.1 |  |  |  |  |  |  | 6.87 | 
Cc1cc2c(=O)n(CCCN(C)C)c3ccccc3c2nn1 | 2.1 | > 100 | 0.1 | 1.8 | 1.7 |  |  |  |  |  |  | 49.1 | 
CO[C@@H]1[C@@H](OC(N)=O)[C@@H](O)[C@H](Oc2ccc3c(O)c(NC(=O)c4ccc(O)c(CC=C(C)C)c4)c(=O)oc3c2C)OC1(C)C [NOVOBIOCIN] |  |  |  |  |  |  |  |  | 63.4 |  |  |  | 
Cc1cc2c(=O)n(CCN(C)C)c3ccccc3c2nn1 | 0.6 | > 100 | 0.2 | 2.7 | 1.2 |  |  |  |  |  |  | 40.9 | 
O=c1c2nc3ccccc3nc2c2ccccc2n1CCN1CCOCC1 | 0 | > 100 | 0 | 0 | 0.8 |  |  |  | > 100 |  |  | > 100 | > 100
CCN(CC)CCOc1nc2ccccc2c2nc3ccccc3nc12 | 0.8 | > 100 | 0.1 | 2.5 | 1 |  |  |  |  |  |  | 25.4 | 
CN(C)CCCn1c(=O)c2nc3ccccc3nc2c2ccccc21 | 5.5 | > 100 | 0.4 | 7.8 | 4.7 | 3.57 | 1.32 |  | > 100 | 10.9 |  | 2.04 | 5.99
CN(CCCCCNc1nc2ccccc2c2nc3ccccc3nc12)Cc1ccccc1 | 5.9 | > 100 | 0 | 1.5 | 3.1 |  |  |  | > 100 |  |  | > 100 | > 100

Further lines, with some results ahead:

ΔTm [1] [°C] | IC50 [2] [µM] | ΔTm [4] [°C] | ΔTm [5] [°C] | ΔTm (Homo sapiens) [°C] | EC50 [6] [µM] | EC50 [8] [µM] | EC50 [9] [µM] | IC50 [10] [µM] | EC50 [11] [µM] | Activity (Escherichia coli) | Compound | IC50 [3] [µM] | IC50 [7] [µM]
1.4 | 19.4 | 1.8 | 2 | 0.4 |  |  |  |  |  |  | c1ccc2nc3c(nc2c1)c(NCCN1CCCCC1)nc1ccccc13 | 10.3 | 
9.4 | 5.14 | 4.2 | 11.6 | 9.8 | 0.83 | 0.57 | 4.48 | > 100 | 1.26 |  | CN(C)CCCCNc1nc2ccccc2c2nc3ccccc3nc12 | 2.32 | 1.6
6.4 | 34.3 | 0.9 | 7.4 | 4.8 |  |  |  |  |  |  | CN(C)CCCCn1c(=O)c2nc3ccccc3nc2c2ccccc21 | 11.1 | 
4.1 | 35.6 | 0.3 | 4.8 | 2.7 |  |  |  |  |  |  | CN(C)CCn1c(=O)c2nc3ccccc3nc2c2ccccc21 | 7.18 | 
4.1 | 23.8 | 0.5 | 3.8 | 1.4 |  |  |  |  |  |  | CN(C)CCCOc1nc2ccccc2c2nc3ccccc3nc12 | 6.1 | 
5.9 | 13.9 | 1.5 | 4.7 | 2 |  |  |  |  |  |  | CCN(CC)CCCNc1nc2ccccc2c2nc3ccccc3nc12 | 6.53 | 
4 | 19.5 | 4.3 | 9.7 | 8.2 |  |  |  | > 100 |  |  | CN(C)CCNc1nc2ccccc2c2nc3ccccc3nc12 | 2.98 | 2.34
 | 3 |  |  |  |  |  |  |  |  | Active | COc1cccc2c1C(=O)c1c(O)c3c(c(O)c1C2=O)C[C@@](O)(C(=O)CO)C[C@@H]3O[C@H]1C[C@H](N)[C@H](O)[C@H](C)O1 [DOXORUBICIN] |  | 
8.8 | 17.8 | 4.2 | 11.2 | 10.6 |  |  |  | > 100 |  |  | CN(C)CCSc1nc2ccccc2c2nc3ccccc3nc12 | 6.03 | 2.41
5.9 | 11.3 | 2.2 | 6.9 | 6.1 |  |  |  | > 100 |  |  | CN(C)CCCNc1nc2ccccc2c2nc3ccccc3nc12 | 5.37 | 2.96
